From patent US11098061B2 (Celgene CAR LLC, priority 2013, dated 2021) come the findings set out here.

Where only a bound is given, the exact number is not on record here.

Test [1] deals with T1, MK2 (Homo sapiens (Human), UniProt P49137). Briefly: MK2 modification assessment by whole protein mass spectrometry. Format: binding. The conditions noted are these: intact MK2, 60 min, 10-fold excess of compound to protein. On the procedure: Modification of MK2 is measured by whole protein MS analysis. […] 5 μL aliquots of the samples were diluted with 15 μL of 0.2% TFA prior to micro C4 ZipTipping directly onto the MALDI target using sinapinic acid as the desorption matrix (10 mg/ml in 0.1% TFA:Acetonitrile 50:50). Analysis was performed on a AB Sciex 4800 MALDI TOF/TOF retro fitted with an HM2 detector (CovalX). Percent modification of target MK2 (i.e., the percent of total MK2 modified by the test compound) for each compound was calculated by subtracting the centroid mass of the compound treated MK2 from the centroid mass of the control MK2 and dividing that value with the mass of the compound.

Test [2] deals with T1, MK2. Briefly: MK2 cellular assay (Hsp27 phosphorylation in Thp-1 cells). Type of test: cell-based. The conditions noted are these: differentiated Thp-1 cells, compound 1 hour, 50 ng/ml LPS 15 minutes, phosphorylation of Hsp27; read-out: MK2EC50. Here is the method: Compounds were assayed in Thp-1 human acute monocytic leukemia cells to measure inhibition of MK2 activity. Thp-1 were grown in suspension in T225 flasks. Two days prior to assay, Thp-1 cells were spun down, counted and plated at 1×10^6 cells per well of a 12 well plate in complete media containing 10 ng/ml PMA (phorbol myristate acetate) to differentiate the cells. On day of assay, cells were washed with complete media, and compound was added to differentiated Thp-1 cells for 1 hour. Cells were washed again, and complete media containing 50 ng/ml LPS (lipopolysaccharide) was added. After 15 minutes, cells were washed once with PBS and lysed on ice with BioRad Bioplex lysis buffer. 20 μg total protein from lysates were loaded on gel and blots were probed for phosphorylation of the MK2 substrate Hsp27. Dose response inhibition of MK2 signaling in differentiated Thp-1 cells was used to determine the EC50 for compounds reported in Table A in the column entitled “MK2 EC50.”

The target in test [3] is p38a activated, mitogen-activated protein kinase-activated protein kinase 2 (MAPKAP-K2 or MK-2) enzyme (Homo sapiens (Human), UniProt P49137). Put plainly: MK2 Omnia continuous-read kinase assay for compound potency. Type of test: biochemical. The conditions noted are these: [MK-2]=0.4 nM, [ATP]=1.0 mM, [ST3-Sox]=10 μM. The text has this: The protocol below describes a continuous-read kinase assay optimized to measure potency of compounds against p38a activated, mitogen-activated protein kinase-activated protein kinase 2 (MAPKAP-K2 or MK-2) enzyme. The mechanics of the assay platform are best described by the vendor (Invitrogen, Carlsbad, Calif.) on their website at the following URL: invitrogen.com/search/global/searchAction. action?resultPage=1 &resultsPerPage=15 &query=om nia&personaFilterTerm=Support+%26+Troubleshoot
Kinase reactions were started with the addition of 40 μL of MK-2 enzyme and monitored every 71 seconds for 30-240 minutes at λex360/λem485 in a Synergy^2, Synergy^4 or Synergy H^4 plate reader from BioTek (Winooski, Vt.). […] Initial velocity (0 minutes to +30 minutes) from each reaction was estimated from the slope of a plot of relative fluorescence units vs time (minutes) and normalized to the no enzyme and no inhibitor control groups for % Inhibition. The resulting % Inhibition values were then plotted against inhibitor concentration to estimate IC50 from log[Inhibitor] vs Response, Variable Slope model in GraphPad Prism from GraphPad Software (San Diego, Calif.).
[MK-2]=0.4 nM, [ATP]=1.0 mM and [ST3-Sox]=10 μM (ATP ^appKM=8-10 μM)

T1 sequence (P49137 whole entry): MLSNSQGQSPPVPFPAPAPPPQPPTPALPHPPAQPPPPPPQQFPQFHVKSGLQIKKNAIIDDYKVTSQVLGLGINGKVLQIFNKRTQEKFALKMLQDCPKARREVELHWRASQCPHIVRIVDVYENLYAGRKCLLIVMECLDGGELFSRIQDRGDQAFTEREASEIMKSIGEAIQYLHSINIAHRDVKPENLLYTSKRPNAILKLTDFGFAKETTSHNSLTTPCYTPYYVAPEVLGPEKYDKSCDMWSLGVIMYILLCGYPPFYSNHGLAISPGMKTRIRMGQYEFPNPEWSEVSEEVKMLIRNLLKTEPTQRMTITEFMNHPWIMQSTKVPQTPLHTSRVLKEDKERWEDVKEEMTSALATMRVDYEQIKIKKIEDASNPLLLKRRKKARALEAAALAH
Sequence of p38a activated, mitogen-activated protein kinase-activated protein kinase 2 (MAPKAP-K2 or MK-2) enzyme (P49137 whole entry): as above

As for `C=CC(=O)Nc1cc(-c2ccc3c(ccc4sc5c(c43)NC[C@@H](C)NC5=O)n2)ccc1C1CCN(C)CC1` [III-58, (R)—N-(5-(10-methyl-8-oxo-9,10,11,12-tetrahydro-8H-[1,4]diazepino[5′,6′:4,5]thieno[3,2-f]quinolin-3-yl)-2-(1-methylpiperidin-4-yl)phenyl)acrylamide], the “MK2 Mass Mod” value in test [1] is on record as “E (mass modification of ≥70%)”. Besides, the EC50 in test [2] is 101 to 500 nM. The IC50 in test [3] was less than 100 nM.

Consider `C=CC(=O)Nc1cc(-c2cc3c(ccc4c5c(n(C)c43)CCC5=O)cn2)ccc1N1CCN(C)CC1` [II-e-15, N-(5-(10-methyl-7-oxo-7,8,9,10-tetrahydrocyclopenta[4,5]pyrrolo[2,3-f]isoquinolin-2-yl)-2-(4-methylpiperazin-1-yl)phenyl)acrylamide], for which the “MK2 Mass Mod” value in test [1] is “E (mass modification of ≥70%)”. Besides, the EC50 in test [2] lay in the range of 101 to 500 nM. In addition, the IC50 in test [3] is less than 100 nM.

With `C=CC(=O)Nc1cc(-c2ccc3c(ccc4sc5c(c43)NC[C@@H](C)NC5=O)n2)ccc1OC(F)(F)F` [III-45, (R)—N-(5-(10-methyl-8-oxo-9,10,11,12-tetrahydro-8H-[1,4]diazepino[5′,6′:4,5]thieno[3,2-f]quinolin-3-yl)-2-(trifluoromethoxy)phenyl)acrylamide], the EC50 in test [2] is less than 100 nM. In addition, the IC50 in test [3] was less than 100 nM.

Take `C=CC(=O)N1C[C@H](C)Oc2ccc(NC(=O)c3ccc4sc5c(c4c3)NC[C@@H](C)NC5=O)cc21` [III-53, (R)—N—((S)-4-acryloyl-2-methyl-3,4-dihydro-2H-benzo[b][1,4]oxazin-6-yl)-3-methyl-5-oxo-2,3,4,5-tetrahydro-1H-benzo[4,5]thieno[3,2-e][1,4]diazepine-9-carboxamide]: the “MK2 Mass Mod” value in test [1] is “E (mass modification of ≥70%)”. In addition, the EC50 in test [2] is more than 1000 nM. Moreover, the IC50 in test [3] was less than 100 nM.

As to `C=CC(=O)Nc1ccccc1C(=O)Nc1cc(-c2cc3c([nH]2)C2(CCCNC2)CNC3=O)ccn1` (racemic) [Compound I-4, 2-acrylamido-N-(4-(4′-oxo-1′,4′,5′,6′-tetrahydrospiro[piperidine-3,7′-pyrrolo[3,2-c]pyridin]-2′-yl)pyridin-2-yl)benzamide], the “MK2 Mass Mod” value in test [1] is listed as “E (mass modification of ≥70%)”. For the same compound, the EC50 in test [2] was more than 1000 nM. In test [3], the IC50 is less than 100 nM.

Regarding `C=CC(=O)Nc1cc(C(=O)Nc2cc(-c3cc4c([nH]3)C3(CCCNC3)CNC4=O)ccn2)ccc1OC(F)(F)F` (racemic) [Compound I-23, 3-acrylamido-N-(4-(4′-oxo-1′,4′,5′,6′-tetrahydrospiro[piperidine-3,7′-pyrrolo[3,2-c]pyridin]-2′-yl)pyridin-2-yl)-4-(trifluoromethoxy)benzamide], the “MK2 Mass Mod” value in test [1] is reported as “E (mass modification of ≥70%)”. In addition, the EC50 in test [2] was in the range of 501 to 999 nM. The IC50 in test [3] is less than 100 nM.

Turning to `C=CC(=O)Nc1cc(-c2cc3c(ccc4c5c([nH]c43)CCC5=O)cn2)ccc1N1CCN(C(C)=O)CC1` [II-e-23, N-(2-(4-acetylpiperazin-1-yl)-5-(7-oxo-7,8,9,10-tetrahydrocyclopenta[4,5]pyrrolo[2,3-f]isoquinolin-2-yl)phenyl)acrylamide], in test [1], the “MK2 Mass Mod” value is recorded as “E (mass modification of ≥70%)”. In test [2], the EC50 is 501 to 999 nM. In addition, the IC50 in test [3] was less than 100 nM.

On to `C=CC(=O)Nc1cc(-c2cc3c(cn2)CCc2c-3[nH]c3c2C(=O)NCC3)ccc1N1CCN(C)CC1` [II-1, N-(2-(4-methylpiperazin-1-yl)-5-(7-oxo-6,7,8,9,10,11-hexahydro-5H-pyrido[3′,4′:4,5]pyrrolo[2,3-f]isoquinolin-2-yl)phenyl)acrylamide], for which the “MK2 Mass Mod” value in test [1] is reported as “E (mass modification of ≥70%)”. The EC50 in test [2] was less than 100 nM. The IC50 in test [3] is less than 100 nM.

For `C=CC(=O)Nc1cc(NC(=O)c2ccc3sc4c(c3c2)NC[C@@H](C)NC4=O)ccc1N1CCCC1` [III-3, (R)—N-(3-acrylamido-4-(pyrrolidin-1-yl)phenyl)-3-methyl-5-oxo-2,3,4,5-tetrahydro-1H-benzo[4,5]thieno[3,2-e][1,4]diazepine-9-carboxamide], the “MK2 Mass Mod” value in test [1] is “E (mass modification of ≥70%)”. In addition, in test [2], the EC50 is less than 100 nM. For the same compound, in test [3], the IC50 is less than 100 nM.

For `C=CC(=O)N1CCC[C@@H](NC(=O)c2ccc3sc4c(c3c2)NC[C@@H](C)NC4=O)C1` [III-42], the “MK2 Mass Mod” value in test [1] is listed as “E (mass modification of ≥70%)”. For the same compound, in test [2], the EC50 was more than 1000 nM. For the same compound, the IC50 in test [3] was less than 100 nM.

With `C=CC(=O)Nc1cc(-c2ncc3c(n2)-c2[nH]c4c(c2CC3)C(=O)NCC4)ccc1OCCOC` [II-15, N-(2-(2-methoxyethoxy)-5-(7-oxo-6,7,8,9,10,11-hexahydro-5H-pyrido[3′,4′:4,5]pyrrolo[3,2-h]quinazolin-2-yl)phenyl)acrylamide], in test [1], the “MK2 Mass Mod” value is “E (mass modification of ≥70%)”. In test [2], the EC50 is less than 100 nM. Moreover, in test [3], the IC50 was less than 100 nM.

Turning to `C=CC(=O)N1CCC[C@H](NC(=O)c2ccc3sc4c(c3c2)NC[C@@H](C)NC4=O)C1` [III-41], the EC50 in test [2] was in the range of 101 to 500 nM.

Take `C=CC(=O)Nc1ccccc1NC(=O)c1ccc2cc3n(c2c1)C1(CCC1)CNC3=O` [Compound V-14, N-(2-acrylamidophenyl)-1′-oxo-2′,3′-dihydro-1′H-spiro[cyclobutane-1,4′-pyrazino [1,2-a]indole]-7′-carboxamide]: the “MK2 Mass Mod” value in test [1] is “E (mass modification of ≥70%)”. In test [3], the IC50 was more than 1000 nM.

Turning to `C=CC(=O)Nc1ccc2[nH]c(-c3ccc4cc5n(c4c3)C3(CCC3)CNC5=O)nc2c1` [Compound V-59, N-(2-(1′-oxo-2′,3′-dihydro-1′H-spiro[cyclobutane-1,4′-pyrazino [1,2-a]indol]-7′-yl)-1H-benzo[d]imidazol-5-yl)acrylamide], the “MK2 Mass Mod” value in test [1] is “G (mass modification ≤30%)”. Moreover, in test [3], the IC50 was less than 100 nM.

With `C=CC(=O)NC1COCC1NC(=O)c1ccc2sc3c(c2c1)NC[C@@H](C)NC3=O` (stereo partly drawn) [III-48], the “MK2 Mass Mod” value in test [1] is “G (mass modification ≤30%)”. Moreover, the IC50 in test [3] is less than 100 nM.

As to `C=CC(=O)Nc1cccc(NC(=O)c2ccc3cc4n(c3c2)CCNC4=O)c1` [Compound V-7, N-(3-acrylamidophenyl)-1-oxo-1,2,3,4-tetrahydropyrazino[1,2-a]indole-7-carboxamide], in test [1], the “MK2 Mass Mod” value is given as “F (mass modification of 31-69%)”. The IC50 in test [3] was more than 1000 nM.

As to `C=CC(=O)N[C@H]1CCCC[C@H]1NC(=O)c1ccc2cc3n(c2c1)C1(CCC1)CNC3=O` (racemic) [Compound V-46, Cis-N-(2-acrylamidocyclohexyl)-1′-oxo-2′,3′-dihydro-1′H-spiro[cyclobutane-1,4′-pyrazino[1,2-a]indole]-7′-carboxamide (racemic)], the “MK2 Mass Mod” value in test [1] is listed as “G (mass modification ≤30%)”. Further, in test [3], the IC50 is more than 1000 nM.

Turning to `C=CS(=O)(=O)N1CCC[C@H](NC(=O)c2ccc3sc4c(c3c2)NC[C@@H](C)NC4=O)C1` [III-43], the EC50 in test [2] is less than 100 nM.

`C=CC(=O)Nc1cc(C)cc(-c2cc3c(ccc4c5c([nH]c43)CCC5=O)cn2)c1` [II-e-22, N-(3-methyl-5-(7-oxo-7,8,9,1-tetrahydrocyclopenta[4,5]pyrrolo[2,3-f]isoquinolin-2-yl)phenyl)acrylamide]: the EC50 in test [2] is 101 to 500 nM. In addition, the IC50 in test [3] lay within 101 to 500 nM.

For `C=CC(=O)NCc1csc(NC(=O)c2ccc3cc4n(c3c2)C2(CCC2)CNC4=O)n1` [Compound V-43, N-(4-(acrylamidomethyl)thiazol-2-yl)-1′-oxo-2′,3′-dihydro-1′H-spiro[cyclobutane-1,4′-pyrazino[1,2-a]indole]-7′-carboxamide], in test [1], the “MK2 Mass Mod” value is “G (mass modification ≤30%)”. Besides, the IC50 in test [3] was more than 1000 nM.

As usually defined, the IC50 is the concentration needed to halve the response being measured.
